In the assay the test system is Neisseria gonorrhoeae, GC525 (NG-2888). Put plainly: in-vitro antibacterial activity, microbroth dilution MIC susceptibility testing. Type of assay: cell-based. Further details: unit: ug/mL. To be noted: microbroth dilution in gonococcal broth, 20-24 hours at 35 C, lowest concentration preventing visible growth. The method, boiled down: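 Broth microdilution in gonococcal broth, inoculum ~5×10^5 cfu/mL, 20-24 h at 35 C in humidified CO2; compounds from 2 mg/mL DMSO stocks over 64-0.06 and 1-0.001 ug/mL two-fold series. MIC is the lowest concentration preventing visible growth, read visually; duplicates differing one well give the lower value, two wells the middle value.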

The mark [1] stands for this setting: Neisseria gonorrhoeae, read-out: MIC.

Converted amounts (≈) assume the structure as drawn. Like-named read-outs stand apart in the source and are kept apart here. Where only a bound is given, the exact number is not on record here.

Turning to `CCNC(=O)Nc1nc2cc(-c3cccnc3)cc(C(=O)N[C@@H](C)c3ccccc3)n2n1` [Example 42, (S)-2-(3-Ethyl-ureido)-7-pyridin-3-yl-[1,2,4]triazolo[1,5-a]pyridine-5-carboxylic acid(1-phenyl-ethyl)-amide], the minimal inhibitory concentration (MIC) under setting [1] was determined as 8 µg/mL (≈ 18.6 µM). `CCNC(=O)Nc1nc2cc(-c3cccnc3)cc(C(=O)N(C)C(C)c3ccccn3)n2n1` (centres unmarked) [Example 90, 2-(3-Ethyl-ureido)-7-pyridin-3-yl-[1,2,4]triazolo[1,5-a]pyridine-5-carboxylic acidmethyl-(1-pyridin-2-yl-ethyl)-amide]: the minimum inhibitory concentration (MIC) under setting [1] is more than 64 µg/mL.

Regarding `CCNC(=O)Nc1nc2cc(-c3cccnc3)cc(C(=O)NCCCN3CCCC3)n2n1` [Example 47, 2-(3-Ethyl-ureido)-7-pyridin-3-yl-[1,2,4]triazolo[1,5-a]pyridine-5-carboxylic acid (3-pyrrolidin-1-yl-propyl)-amide], the MIC under setting [1] came to 16 µg/mL (≈ 36.7 µM). `CCNC(=O)Nc1nc2cc(-c3cccnc3)cc(N3CCN(C)CC3)n2n1` [Example 131, 1-Ethyl-3-[5-(4-methyl-piperazin-1-yl)-7-pyridin-3-yl-[1,2,4]triazolo[1,5-a]pyridin-2-yl]-urea]: the MIC under setting [1] stood at 32 µg/mL (≈ 84.1 µM).

`CCNC(=O)Nc1nc2cc(-c3cccnc3)cc(C(=O)N(Cc3ccncc3)CC3CCCO3)n2n1` (centres unmarked) [Example 92, 2-(3-Ethyl-ureido)-7-pyridin-3-yl-[1,2,4]triazolo[1,5-a]pyridine-5-carboxylic acidpyridin-4-ylmethyl-(tetrahydro-furan-2-ylmethyl)-amide]: the minimum inhibitory concentration (MIC) under setting [1] was determined as 8 µg/mL (≈ 16 µM). Compound “N-Methyl-N′-[5-(3-methylpyridin-2-yl)-7-pyridin-3-yl[1,2,4]triazolo[1,5-a]pyridin-2-yl]urea [Example 145]” showed a minimal inhibitory concentration (MIC) of 16.0 µg/mL. In the case of `CCNC(=O)Nc1nc2cc(-c3cccnc3)cc(C(=O)N3CCCC3C)n2n1` (centres unmarked) [Example 77, 1-Ethyl-3-[5-(2-methyl-pyrrolidine-1-carbonyl)-7-pyridin-3-yl-[1,2,4]triazolo[1,5-a]pyridin-2-yl]-urea], the MIC under setting [1] was found to be 1 µg/mL (≈ 2.54 µM).

Turning to `CCNC(=O)Nc1nc2cc(-c3cccc(Cl)c3)cc(C(=O)NCC)n2n1` [Example 67, 7-(3-Chloro-phenyl)-2-(3-ethyl-ureido)-[1,2,4]triazolo[1,5-a]pyridine-5-carboxylic acid ethylamide], the MIC under setting [1] amounted to 1 µg/mL (≈ 2.59 µM). `CCNC(=O)Nc1nc2cc(-c3ccc(OC)cc3OC)cc(C(=O)NCC)n2n1` [Example 102, 7-(2,4-Dimethoxy-phenyl)-2-(3-ethyl-ureido)-[1,2,4]triazolo[1,5-a]pyridine-5-carboxylic acid ethylamide]: the MIC under setting [1] was more than 64 µg/mL.

Take `CCNC(=O)Nc1nc2cc(-c3cccnc3)cc(-c3oc(C)nc3C)n2n1` [Example 148, N-[5-(2,4-Dimethyl-1,3-oxazol-5-yl)-7-pyridin-3-yl[1,2,4]triazolo[1,5-a]pyridin-2-yl]-N′-ethylurea]: the MIC under setting [1] amounted to 4 µg/mL (≈ 10.6 µM).

For the compound `CCNC(=O)Nc1nc2cc(-c3ccc(F)c(C)c3)cc(C(=O)NCC)n2n1` [Example 53, 2-(3-Ethyl-ureido)-7-(4-fluoro-3-methyl-phenyl)-[1,2,4]triazolo[1,5-a]pyridine-5-carboxylic acid ethylamide], under setting [1], the MIC was 16 µg/mL (≈ 41.6 µM). Turning to `CCNC(=O)Nc1nc2cc(-c3cccnc3)cc(-c3cncn3C)n2n1` [Example 136, N-ethyl-N′-[5-(1-methyl-1H-imidazol-5-yl]-7-pyridin-3-yl[1,2,4]triazolo[1,5-a]pyridin-2-yl]urea], the minimal inhibitory concentration (MIC) under setting [1] was determined as 4 µg/mL (≈ 11 µM). Turning to `CCNC(=O)Nc1nc2cc(-c3cccnc3)cc(-c3ncccn3)n2n1` [Example 128, 1-Ethyl-3-(7-pyridin-3-yl-5-pyrimidin-2-yl-[1,2,4]triazolo[1,5-a]pyridin-2-yl)-urea], the MIC under setting [1] was more than 64 µg/mL. On the same count and under the same terms, next, `CCNC(=O)Nc1nc2cc(-c3cccnc3)cc(N3CCNCC3)n2n1` [Example 146, 1-Ethyl-3-(5-piperazin-1-yl-7-pyridin-3-yl-[1,2,4]triazolo[1,5-a]pyridin-2-yl)-urea]: 32 µg/mL (≈ 87.3 µM).

The record behind these values is patent publication US7524860B2, “Antibacterial agents” (Pfizer Inc., priority 2004, dated 2009).
